The source of these data is ChEMBL document CHEMBL1681695, “Chroman and tetrahydroquinoline ureas as potent TRPV1 antagonists” (Bioorg Med Chem Lett, 2011).

Series [1] has as its target Transient receptor potential cation channel subfamily V member 1 (Homo sapiens, UniProt Q8NER1). Kind of series: Antagonist activity at human TRPV1 assessed as inhibition of calcium influx. The class given is functional.
The target of another series is CYP3A4 (Homo sapiens, UniProt P08684). Briefly: Inhibition of CYP3A4 at 10 uM. The class given is ADME.
CYP3A4, sequence (P08684 whole entry): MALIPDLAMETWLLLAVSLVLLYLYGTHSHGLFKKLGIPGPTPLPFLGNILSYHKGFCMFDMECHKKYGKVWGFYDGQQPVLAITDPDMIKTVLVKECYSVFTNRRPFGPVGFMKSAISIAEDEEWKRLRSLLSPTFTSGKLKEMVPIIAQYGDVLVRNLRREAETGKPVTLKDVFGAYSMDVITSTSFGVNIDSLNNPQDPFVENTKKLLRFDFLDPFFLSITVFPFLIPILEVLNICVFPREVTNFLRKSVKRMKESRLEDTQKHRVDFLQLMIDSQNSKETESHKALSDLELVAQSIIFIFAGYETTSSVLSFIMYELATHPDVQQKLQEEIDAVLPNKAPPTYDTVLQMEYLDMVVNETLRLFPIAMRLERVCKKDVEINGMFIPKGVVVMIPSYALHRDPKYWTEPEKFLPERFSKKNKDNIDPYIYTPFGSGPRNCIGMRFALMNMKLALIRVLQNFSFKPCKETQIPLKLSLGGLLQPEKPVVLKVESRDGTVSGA
Series [2] is described as follows: Ratio of drug uptake in brain to plasma in rat. The class given is ADME.
Series [3] deals with Rattus norvegicus. Briefly: Analgesic activity in rat assessed as inhibition of capsaicin-induced acute pain at 30 umol/kg, po. The series is classed as functional.
Series [4] concerns Rattus norvegicus. Briefly: Antihyperalgesic activity in po dosed rat assessed as inhibition of carrageenan-induced hyperalgesia. The series is classed as functional.
Series [5] relates to Rattus norvegicus. Briefly: Antihyperalgesic activity in po dosed rat assessed as inhibition of CFA-induced hyperalgesia. The class given is functional.
For series [6], the system named is Rattus norvegicus. Briefly: Analgesic activity in rat assessed as inhibition of MIA-induced osteoarthritis pain at 30 umol/kg, po. The class given is functional.

pIC50: −log10 of the molar value.

Transient receptor potential cation channel subfamily V member 1, sequence (Q8NER1 whole entry): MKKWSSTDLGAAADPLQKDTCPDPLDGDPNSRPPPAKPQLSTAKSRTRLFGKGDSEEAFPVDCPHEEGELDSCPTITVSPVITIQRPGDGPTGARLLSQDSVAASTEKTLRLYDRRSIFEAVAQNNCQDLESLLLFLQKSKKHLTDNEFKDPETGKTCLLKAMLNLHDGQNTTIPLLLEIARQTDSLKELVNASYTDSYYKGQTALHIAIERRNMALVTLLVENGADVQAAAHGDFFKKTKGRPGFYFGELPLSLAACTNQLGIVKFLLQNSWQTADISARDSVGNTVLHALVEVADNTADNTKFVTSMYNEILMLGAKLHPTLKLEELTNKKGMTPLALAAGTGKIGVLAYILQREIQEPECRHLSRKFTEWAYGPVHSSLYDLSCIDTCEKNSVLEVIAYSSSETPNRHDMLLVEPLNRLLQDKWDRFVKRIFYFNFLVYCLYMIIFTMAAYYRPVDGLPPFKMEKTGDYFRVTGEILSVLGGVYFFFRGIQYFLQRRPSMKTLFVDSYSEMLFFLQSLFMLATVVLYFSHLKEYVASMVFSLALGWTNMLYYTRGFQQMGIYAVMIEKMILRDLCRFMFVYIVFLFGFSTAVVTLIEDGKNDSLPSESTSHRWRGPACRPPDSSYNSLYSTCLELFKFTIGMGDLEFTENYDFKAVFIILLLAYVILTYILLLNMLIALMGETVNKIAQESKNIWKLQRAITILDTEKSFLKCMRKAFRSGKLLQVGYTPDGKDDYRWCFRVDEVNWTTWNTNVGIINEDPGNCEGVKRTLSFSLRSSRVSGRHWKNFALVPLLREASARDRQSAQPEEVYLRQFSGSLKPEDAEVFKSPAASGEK

The pIC50 is −log10 of the IC50, conventionally taken in molar units. In the case of `CC(C)(C)c1ccc2c(c1)OCC[C@@H]2NC(=O)Nc1cccc2[nH]ncc12`, the pIC50 in series [1] is 5.92. Still for that read-out and setting: the value for `CC(C)CCN1CCC(NC(=O)Nc2cccc3[nH]ncc23)c2cccc(Cl)c21` (stereo unspecified) was 7.96; that for `CN1CCC(NC(=O)Nc2cccc3[nH]ncc23)c2ccc(C(C)(C)C)cc21` (stereo unspecified) was 6.94; that for `O=C(Nc1cccc2[nH]ncc12)NC1CCN(Cc2ccccc2)c2ccc(F)cc21` (stereo unspecified) was 7.18. As usually defined, the inhibition is the relative decrease from the control value, in per cent. Consider `COc1ccc2c(c1)C(NC(=O)Nc1cccc3[nH]ncc13)CCN2CC1CCCCC1` (stereo unspecified), for which the negative logarithm of the IC50 (pIC50) in series [1] is 6.71. In addition, testing at 10 µM against CYP3A4 gave an inhibition of 93%. As for `O=C(Nc1cccc2[nH]ncc12)NC1CCOc2c1cccc2C(F)(F)F` (stereo unspecified), the pIC50 in series [1] was 8.30. For the compound `CN1CCC(NC(=O)Nc2cccc3[nH]ncc23)c2ccccc21` (stereo unspecified), in series [1], the negative-log IC50 (pIC50) was 6.67. For the same compound, at 10 µM the inhibition at CYP3A4 was 65%. As for `O=C(Nc1cccc2[nH]ncc12)NC1CCOc2c1cccc2N1CCOCC1` (stereo unspecified), the pIC50 in series [1] was 6.96.

As to `O=C(Nc1cccc2[nH]ncc12)NC1CCOc2ccc(F)cc21` (stereo unspecified), the pIC50 in series [1] was 6.14. For the compound `COc1ccc2c(c1)C(NC(=O)Nc1cccc3[nH]ncc13)CCN2C` (stereo unspecified), the pIC50 in series [1] is 5.86. For the same compound, at CYP3A4, the inhibition at 10 µM is 59%. As to `CN1CCC(NC(=O)Nc2cccc3[nH]ncc23)c2cc(C(C)(C)C)ccc21` (stereo unspecified), the negative-log IC50 (pIC50) in series [1] is 6.07. Take `CN1CCC(NC(=O)Nc2cccc3[nH]ncc23)c2ccc(C(F)(F)F)cc21` (stereo unspecified): 10 µM produced 47% inhibition against CYP3A4. Consider `CC(C)(C)c1cccc2c1OCC[C@@H]2NC(=O)Nc1cccc2[nH]ncc12`, for which the pIC50 in series [1] was 7.72. The same measure, in the same setting: to `CC(C)(C)c1cccc2c1OCC[C@H]2NC(=O)Nc1cccc2[nH]ncc12` belongs 8.52; to `CC(C)(C)c1ccc2c(c1)OCCC2NC(=O)Nc1cccc2[nH]ncc12` (stereo unspecified), 7.37. For the compound `O=C(Nc1cccc2[nH]ncc12)NC1CCN(Cc2ccccc2)c2ccccc21` (stereo unspecified), the negative logarithm of the IC50 (pIC50) in series [1] was 7.15. The compound also came in with an inhibition at 10 µM at CYP3A4 of 94%. With `O=C(Nc1cccc2[nH]ncc12)NC1CCOc2c1cccc2N1CCCCC1` (stereo unspecified), the pIC50 in series [1] was 7.80. For `O=C(Nc1cccc2[nH]ncc12)NC1CCOc2c(C3CCCCC3)cccc21` (stereo unspecified), the pIC50 in series [1] was 7.82. On to `Cc1ccc2c(c1)C(NC(=O)Nc1cccc3[nH]ncc13)CCO2` (stereo unspecified), for which the negative-log IC50 (pIC50) in series [1] was 6.03. Regarding `O=C(Nc1cccc2[nH]ncc12)NC1CCOc2c(OC(F)(F)F)cccc21` (stereo unspecified), the pIC50 in series [1] is 8.30. Same read-out and setting: to `O=C(Nc1cccc2[nH]ncc12)NC1CCOc2cc(OC(F)(F)F)ccc21` (stereo unspecified) belongs 8.10.

In the case of `COc1ccc2c(c1)C(NC(=O)Nc1cccc3[nH]ncc13)CCN2Cc1ccccc1` (stereo unspecified), the pIC50 in series [1] is 6.80. The same compound came in with an inhibition at 10 µM against CYP3A4 of 97%.

For the compound `CN1CCC(NC(=O)Nc2cccc3[nH]ncc23)c2cccc(C(C)(C)C)c21` (stereo unspecified), the pIC50 in series [1] was 8.22. The same measure, in the same setting: the value for `O=C(Nc1cccc2[nH]ncc12)N[C@H]1CCOc2cc(C(F)(F)F)ccc21` was 7.37. The same measure, in the same setting: the value for `CC(C)(C)c1ccc2c(c1)OCC[C@H]2NC(=O)Nc1cccc2[nH]ncc12` was 7.51. The Kp is tissue or fluid exposure divided by exposure in the circulation. One may read the inhibition in vivo as how much of the control response was suppressed. As usually defined, the ED50 is the dose at which the effect has come halfway, by size or by number of responders. As to `CC(C)(C)c1cccc2c1OCCC2NC(=O)Nc1cccc2[nH]ncc12` (stereo unspecified), the pIC50 in series [1] was 8.30. Also, the Kp in series [2] stood at 0.42. In addition, the inhibition in vivo at 30 µmol/kg in the series on Rattus norvegicus [3] worked out at 89%; in the series on Rattus norvegicus [6], 56%. Moreover, the figures for the ED50 with Rattus norvegicus [4] and with Rattus norvegicus [5] were 10 µmol/kg and 15 µmol/kg, respectively. Take `O=C(Nc1cccc2[nH]ncc12)NC1CCOc2ccccc21` (stereo unspecified): the pIC50 in series [1] was 6.63. On the same count and under the same terms, the value for `CC(C)(C)c1ccc2c(c1)C(NC(=O)Nc1cccc3[nH]ncc13)CCN2Cc1ccccc1` (stereo unspecified) was 6.92; that for `O=C(Nc1cccc2[nH]ncc12)N[C@@H]1CCOc2cc(C(F)(F)F)ccc21` was 8.40. `CN1CCC(NC(=O)Nc2cccc3[nH]ncc23)c2ccc(F)cc21` (stereo unspecified): the pIC50 in series [1] is 7.47. Besides, the inhibition at 10 µM on CYP3A4 is 66%.
